One assay has as its system MCF7. The assay can be described thus: Cytotoxicity against human MCF7 cells after 48 hrs by MTT assay. It counts as cell-based. The note with it: MCF7, 48 h. Background: Formazan colour is commonly taken as a measure of viable cells.
In the next assay the test system is Entamoeba histolytica. The assay can be described thus: […] activity against Entamoeba histolytica HM-1:IMSS after 72 hrs by eosin-staining method. The format is functional, organism-based.

With `COC(=O)c1ccccc1SCCn1c([N+](=O)[O-])cnc1C`, the IC50 (in general, the concentration that gives 50% inhibition) was greater than 250000 nM in the assay on MCF7 and 28 nM in the assay with Entamoeba histolytica.
On the same counts, the results for `COC(=O)c1ccccc1[S+]([O-])CCn1c([N+](=O)[O-])cnc1C` (configuration not stated) are greater than 250000 nM and 15 nM.
`COC(=O)c1ccccc1S(=O)(=O)CCn1c([N+](=O)[O-])cnc1C`: the half-maximal inhibitory concentration (IC50) in the assay on MCF7 is greater than 250000 nM; in the assay on Entamoeba histolytica, 21 nM.
`Cc1ncc([N+](=O)[O-])n1CCO` [METRONIDAZOLE] showed a half-maximal inhibitory concentration (IC50) in the assay on MCF7 greater than 250000 nM.

The values above are taken from ChEMBL document CHEMBL2062512, “Metronidazole thiosalicylate conjugates: synthesis, crystal structure, docking studies and antiamoebic activity” (Bioorg Med Chem Lett, 2012).
